Experimental data as given in article PMC8758724, “Molecular mechanism of agonism and inverse agonism in ghrelin receptor” (Nature Communications, 2022).
Several values for one entry are separate records, joined by “and”; a condition that tells them apart may be missing. Equal values may be shown once. Entries after “also recorded” stand apart in the source; their conditions may differ. No end group written: not given here. *: point of attachment. Octanoyl = CCCCCCCC(=O)*

Legend:
[1] = tested on: wild-type ghrelin receptor; assay: IP1 accumulation, wild-type ghrelin receptor, HEK293 cells, 37 °C 2 h, Cisbio IP1 kit; assay type: cell-based, human; conditions: WT
Description: Fig. 1 Overall structures of ghrelin receptors bound to inverse agonist and agonist. a Dose-dependent responses of endogenous agonist ghrelin, inverse agonist PF-05190457 and antagonist compound 21 containing 10 nM ghrelin peptide at wild-type ghrelin receptor measured by cellular IP1 accumulation assays. […] Data represent the mean ± SEM from n = 3 biologically independent experiments performed in triplicate. b View from within the plane of the membrane. The inverse agonist-bound ghrelin receptor is represented as a wheat cartoon, and PF-05190457 is shown as a marine blue sphere. Cryo-EM structure of the agonist ghrelin-bound ghrelin receptor-Gαo1-scFv16 complex. c Ghrelin peptides and receptors are shown as deep salmon spheres and aquamarine cartoons, respectively. The Go heterotrimer and scFv16 are shown in the gray cartoon. d View from the extracellular side of the membrane. […]
IP accumulation was measured using Cisbio IP1 assay kit (Cisbio, 62IPAPEB), which has been previously described. […] IP1 was quantified using Synergy H1 microplate reader (BioTek) with excitation at 320 nm, emission at 620 nm, and 665 nm. The accumulation of IP1 was calculated according to a standard dose–response curve in GraphPad Prism 8 (GraphPad Software). […]

ghrelin receptor mutants = assay: NanoBiT-G-protein dissociation, ghrelin receptor mutants, HEK293T cells, Gαio-LgBiT/Gγ-SmBiT, 3–5 min; assay type: cell-based, human; conditions: for ΔpEC50 (from the WT): single replicates
Description: Bars represent differences in calculated potency (pEC50) of ghrelin for mutations relative to the WT ghrelin receptor. Data are colored according to the extent of the effect. […], **P < 0.01 and ***P < 0.001. ns no significant difference, nd not detected. All data were analyzed by one-way analysis of variance (ANOVA) followed by Dunnett’s multiple comparison test, compared with the response of WT (P = 0.002, P = 0.002, P = 0.015, P < 0.001, P < 0.001, P = 0.732, P < 0.001, P = 0.843, P = 0.012, P < 0.001, P = 0.003, P < 0.001, P < 0.001 and P < 0.001 from left to right). […] See also Supplementary Figs. 6 and 7. d Detailed interaction of the octanoyl group of Ser^+3 with the key residues from cavity II and salt bridges between E124^3.33 and R283^6.55 are clearly observed in the ghrelin-bound structure.
For cryo-EM constructs, the full-length of wild-type human ghrelin receptor was subcloned into pFastBac1 vector with an N-terminal FLAG tag and C-terminal 10×His tag. We used the NanoBiT tethering strategy, in which the C-terminus of the ghrelin receptor was directly attached to the LgBiT subunit followed by a TEV protease cleavage site and a double MBP tag. Gβ1 was fused with a C-terminal HiBiT, together with Gγ2 were cloned into pFastBac dual vector. An engineered human Gαo1 with Gαo1 H domain deletion, named miniGαo1 was cloned into pFastBac1 according to published literature. The ghrelin-induced ghrelin receptor activity was measured by NanoBiT-G-protein dissociation assay using a chimeric Gαio protein according to the previous publication except for replacement Gαqo with Gαio[54]. The Gαio were generated by replacing the six amino acids of the C-terminal of Gαi with those from GαoA1. Other constructs including the full-length and various site-directed mutagenesis human ghrelin receptors were cloned into pcDNA3.1 vector for NanoBiT-G-protein dissociation assay. Ghrelin receptor, miniGαo1, and Gβ1γ2 were co-expressed in Sf9 insect cells (Expression System) using the Bac-to-Bac baculovirus expression system (ThermoFisher). The cell pellets were collected by centrifugation 48 h post infection and stored at −80 °C until use.
G-protein activation was detected by a NanoBiT-G-protein dissociation assay. In brief, HEK293T cells were plated in each well of a six-well plate at a concentration of 0.3 million/ml (2 mL per well). Plasmid transfection was performed with a mixture of 400 ng Gαio-LgBiT, 500 ng Gγ-SmBiT, 500 ng Gβ, 600 ng ghrelin receptor by Lipofectamine 2000 (ThermoFisher Scientific) in 200 μL of Opti-MEM (Gibco). After 1 day of transfection, cells in the six-well plate were digested and resuspended in complete medium DMEM (5% FBS, 1% antibiotic) and plated in a 96-well flat-bottomed white microplate. After 24 h, the cells were washed twice with D-PBS and incubated in 40 μL of 5 μM coelenterazine 400a (Maokangbio) solution diluted 0.01% BSA and 5 mM HEPES (pH 7.5)-containing HBSS (assay buffer) for 1 h at room temperature. Baseline luminescence was measured using a luminescent microplate reader (Tecan). Ghrelin (5×, diluted in the assay buffer) was added to the cells (10 μL) and incubated for 3–5 min at room temperature before the second measurement. The ligand-induced signal ratio was normalized to the baseline luminescence and fold-change signals over vehicle treatment were used to show G-protein dissociation response.

ghrelin: endogenous agonist, 28-amino acid peptide with octanoyl modification at the side chain of Ser+3 (GSS(Octanoyl)FLSPEHQRVQQRKESKKPPAKLQPR; UniProt Q9UBU3 24-51, looked up)
activation potency [1]: high activation potency as a full agonist | ΔpEC50 (from the WT) (ghrelin receptor mutants; E124A): -1.682 and -1.692 and -1.769 | ghrelin-induced activation, effect of mutation (ghrelin receptor mutants; E124^3.33A): almost abolished the activity of the ghrelin receptor | ghrelin-induced activation, effect of mutation (ghrelin receptor mutants; E124^3.33A, listed as ghrelin peptide): remarkably reduced the activation potency | ΔpEC50 (from the WT) (ghrelin receptor mutants; F38A): -0.347 and -0.237 and -0.393 | ghrelin-induced activation, effect of mutation (ghrelin receptor mutants; F279^6.51A): decreased the activation potency; also recorded: almost abolished the activity of the ghrelin receptor | ΔpEC50 (from the WT) (ghrelin receptor mutants; F286A): -1.001 and -0.994 and -1.053 | ghrelin-induced activation, effect of mutation (ghrelin receptor mutants; F286^6.58A): decreased the receptor activation | ΔpEC50 (from the WT) (ghrelin receptor mutants; F290A): -0.357 and -0.309 and -0.272 | ΔpEC50 (from the WT) (ghrelin receptor mutants; F309A): -0.421 and -0.648 and -0.344 | ghrelin-induced activation, effect of mutation (ghrelin receptor mutants; F309^7.39 mutant): impaired ghrelin-induced G-protein signaling | ghrelin-induced activation, effect of mutation (ghrelin receptor mutants; F312^7.42A): decreased the activation potency; also recorded: impaired ghrelin-induced G-protein signaling | ΔpEC50 (from the WT) (ghrelin receptor mutants; I178A): -0.256 and -0.542 and -0.472 | ghrelin-induced activation, effect of mutation (ghrelin receptor mutants; I178^4.60A): decreased the receptor activation | ΔpEC50 (from the WT) (ghrelin receptor mutants; L181A): -0.146 and -0.068 and -0.114 | ΔpEC50 (from the WT) (ghrelin receptor mutants; L210A): -0.704 and -0.734 and -0.866 | ghrelin-induced activation, effect of mutation (ghrelin receptor mutants; L210^5.36A): decreased the receptor activation | ΔpEC50 (from the WT) (ghrelin receptor mutants; M213A): -0.105 and -0.084 and -0.1 | ΔpEC50 (from the WT) (ghrelin receptor mutants; N305A): -0.736 and -0.893 and -0.758 | ghrelin-induced activation, effect of mutation (ghrelin receptor mutants; N305^7.35A): remarkably reduced the activation potency | ΔpEC50 (from the WT) (ghrelin receptor mutants; Q302A): -0.891 and -1.104 and -1.015 | ghrelin-induced activation, effect of mutation (ghrelin receptor mutants; Q302^7.32 mutant): impaired ghrelin-induced G-protein signaling | ΔpEC50 (from the WT) (ghrelin receptor mutants; R102A): -0.473 and -0.141 and -0.326 | ghrelin-induced activation, effect of mutation (ghrelin receptor mutants; R283^6.55A): almost abolished the activity of the ghrelin receptor | ghrelin-induced activation, effect of mutation (ghrelin receptor mutants; R283^6.55A, listed as ghrelin peptide): almost abolished the efficacy | ΔpEC50 (from the WT) (ghrelin receptor mutants; S123A): -0.29 and -0.222 and -0.285 | ΔpEC50 (from the WT) (ghrelin receptor mutants; V214A): -0.199 and -0.412 and -0.206 | ghrelin-induced activation, effect of mutation (ghrelin receptor mutants; W276^6.48A): decreased the activation potency; also recorded: almost abolished the activity of the ghrelin receptor | ΔpEC50 (from the WT) (ghrelin receptor mutants; Y106A): -0.423 and -0.136 and -0.417
